Data on one compound can be found in EPA's ToxValDB 9.5 (doi:10.2903/j.efsa.2010.1445).

One data set concerns Daphnia magna. Conditions: chronic/long-term; duration: 21 days.
For another data set, the system named is Tagia sp. As to conditions: acute; mortality.
For another data set, the system named is Oryctolagus sp. Conditions: developmental; development.
The next data set deals with Rattus norvegicus. As to conditions: acute; oral; mortality.
The next data set has as its system Anatidae. Conditions: for LD50: oral, mortality.
Another data set concerns Apis mellifera. As to conditions: acute; duration: 48 hours; dermal; mortality.
In the next data set the test system is Typhlodromus pyri. As to conditions: not reported; mortality.
For data set [1] the following is noted: chronic/long-term; development.
For another data set, the system named is Coturnix coturnix. Conditions: for LD50: acute, oral, mortality.
Another data set concerns Oncorhynchus mykiss. Conditions: acute; duration: 96 hours; mortality.
The subject of the next data set is Lepomis macrochirus. Conditions: acute; duration: 96 hours; mortality.
For a further data set, the system named is Pimephales promelas. Conditions: chronic/long-term; duration: 33 days.

For `N#CCNC(=O)c1cnccc1C(F)(F)F` [Flonicamid], the NOEC with Daphnia magna was 3.1 mg/L; with Bibionidae (chronic/long-term, duration: 28 days), 25 mg/L; with Pimephales promelas, 10 mg/L. The LC50 in the data set on Tagia sp. was more than 1000 mg/kg; with Oncorhynchus mykiss, more than 100 µg/mL; in the data set on Lepomis macrochirus, more than 100 µg/mL; with Bibionidae (acute, duration: 48 hours, mortality), more than 200 µg/mL. The same compound returned an NOAEL with Oryctolagus sp. of 2.5 mg/kg-day. Further, the LD50 is 884 mg/kg in the data set with Rattus norvegicus; 1590 mg/kg in the data set on Anatidae (acute, unspecified, F); 2620 mg/kg in the data set on Anatidae (acute, unspecified, M); more than 302 mg/kg-day in the data set on Anatidae (short-term, feed); more than 51.1 µg/piece with Apis mellifera; more than 2000 mg/kg in the data set with Coturnix coturnix (M/F). In addition, the LD50 in the data set with Coturnix coturnix (diet) was more than 411 mg/kg-day. The results for the NOEL (with Anatidae (reproductive); in data set [1]; in the data set on Coturnix coturnix (reproduction developmental)) were 59 mg/kg-day, 25 mg/kg-day and 90 mg/kg-day, respectively. The compound further returned an LEL in the data set on Typhlodromus pyri of 80 g/ha.
